The first series in a line: Partition coefficient (Log Po/w) of direct dyes. As to conditions: octanol/water partition coefficient.
With `CN(C)c1ccc(/N=N/c2n(C)cc[n+]2C)cc1` [BASIC RED 51, Basic Red 51], the “Log Po/w value” was “around −1.97”.

Turning to `CN(N=Cc1cc[n+](C)cc1)c1ccccc1` [BASIC YELLOW 87, Basic Yellow 87], the “Log Po/w value” is “around −1.67”. On the same count and under the same terms, the same measure for `Cn1cc[n+](C)c1N=Nc1ccc(N)cc1.[Cl-]` [BASIC ORANGE 31, Basic Orange 31]: “around −2.31”.

The same series, now with this note: octanol/water partition coefficient, table of dyes.
On to `NCCNc1ccc(OCCO)cc1[N+](=O)[O-]` [HC ORANGE NO. 2], for which the “Log Po/w” value was found to be 0.13. The same measure, in the same setting: for `Nc1ccc(NCCO)c([N+](=O)[O-])c1` [HC RED NO. 3] the value was −0.42. `O=S(=O)(O)c1cc(S(=O)(=O)O)c2c(/N=N\c3ccc(S(=O)(=O)O)c4ccccc34)c(O)ccc2c1` [ACID RED18]: the “Log Po/w” value is 1.63. The same measure, in the same setting: the same measure for `O=S(=O)([O-])c1ccc(N=Nc2c(O)ccc3ccccc23)cc1.[Na+]` [ACID ORANGE 7]: 1.4. On the same count and under the same terms, the same measure for `Cc1cc(N(CCO)CCO)ccc1N=Nc1ccc(N)cc1` [HC YELLOW NO. 7]: 2.59; for `CCN(CC)c1ccc2c(-c3ccc(S(=O)(=O)[O-])cc3S(=O)(=O)[O-])c3ccc(=[N+](CC)CC)cc-3oc2c1.[Na+]` [ACID RED 52]: 1.3; for `O=[N+]([O-])c1cc(N(CCO)CCO)ccc1NCCO` [HC BLUE NO. 2]: −0.32. Same read-out and setting: the same measure for `O=C1c2ccccc2C(=O)c2c(NCC(O)CO)ccc(NCC(O)CO)c21` (centres unmarked) [HC BLUE NO. 14]: 2.09; for `Cc1ccc(Nc2ccc(Nc3ccc(C)cc3S(=O)(=O)[O-])c3c2C(=O)c2ccccc2C3=O)c(S(=O)(=O)[O-])c1.[Na+].[Na+]` [ACID GREEN 25]: 5.71. For the molecule `O=C([O-])c1c(Cl)c(Cl)c(Cl)c(Cl)c1-c1c2cc(Br)c(=O)c(Br)c-2oc2c(Br)c([O-])c(Br)cc12.[Na+].[Na+]` [ACIDE RED 92], the “Log Po/w” value amounted to 3. Take `CC1=CC(=C(c2cc(C)c(N)c(C)c2)c2c(Cl)cccc2Cl)C=C(C)C1=N.O=P(O)(O)O` [HC BLUE NO. 15]: the “Log Po/w” value was 3.47. For the molecule HC RED NO. 7, the “Log Po/w” value came out at 0.13. With `CNc1cc(OCC(O)CO)ccc1[N+](=O)[O-]` (centres unmarked) [2-NITRO-5-GLYCERYL METHYLANILINE], the “Log Po/w” value was 0.89. For `C[N+](C)(C)c1cccc(N=C2C=C(N)c3c(O)c(Br)cc(N)c3C2=O)c1.[Cl-]` [BASIC BLUE 99], the “Log Po/w” value worked out at 1.88. Same read-out and setting: the same measure for `Nc1ccc(N)c2c1C(=O)c1ccccc1C2=O` [DISPERSE VIOLET 1]: 3; for `O=[N+]([O-])c1cc(N(CCO)CCO)ccc1NCCCO` [HC VIOLET NO 2]: 0.608.

As for `Cc1ccc(Nc2ccc(O)c3c2C(=O)c2ccccc2C3=O)c(S(=O)(=O)[O-])c1.[Na+]` [ACIDE VIOLET 43], the “Log Po/w” value was 3.1. The same measure, in the same setting: the same measure for `O=C([O-])C1=NN(c2ccc(S(=O)(=O)[O-])cc2)C(=O)C1N=Nc1ccc(S(=O)(=O)[O-])cc1.[Na+].[Na+].[Na+]` (centres unmarked) [ACID YELLOW 23]: −10.17; for `Nc1cc(S(=O)(=O)[O-])cc2cc(S(=O)(=O)[O-])c(N=Nc3ccccc3)c(O)c12.[Na+].[Na+]` [ACID RED 33]: 0.5; for `Cc1cc(N)c([N+](=O)[O-])cc1NCCO` [HC VIOLET NO 1]: 0.67. The same measure, in the same setting: the same measure for `O=[N+]([O-])c1cc(O)ccc1NCCO` [3-NITRO-P-HYDROXYETHYLAMINOPHENOL]: 0.21; for `COS(=O)(=O)[O-].C[N+]1(CCCNc2ccc(O)c3c2C(=O)c2ccccc2C3=O)CCOCC1` [HYDROXYANTHRAQUINONEAMINO-PROPYL METHYL MORPHOLINIUM METHOSULFATE]: 0.89; for `C[N+](C)(C)c1ccc2ccc(O)c(N=Nc3ccc(N)c([N+](=O)[O-])c3)c2c1.[Cl-]` [BASIC BROWN 17]: −0.15. Same read-out and setting: for `Nc1c(N=Nc2ccc([N+](=O)[O-])cc2)c(S(=O)(=O)[O-])cc2cc(S(=O)(=O)[O-])c(N=Nc3ccccc3)c(O)c12.[Na+].[Na+]` [ACID BLACK 1] the value was 1.2; for ACID YELLOW 3, −1.05.

As to `CCN(Cc1cccc(S(=O)(=O)[O-])c1)c1ccc(C(=C2C=CC(=[N+](CC)Cc3cccc(S(=O)(=O)[O-])c3)C=C2)c2ccccc2S(=O)(=O)[O-])cc1.[Na+].[Na+]` [ACID BLUE 9], the “Log Po/w” value is listed as −0.32. Still for that read-out and setting: the same measure for `Nc1ccc(O)cc1[N+](=O)[O-]` [4-AMINO-3-NITROPHENOL]: 1.19. The same measure, in the same setting: the same measure for `COc1ccc([N+](=O)[O-])c(NCCN)c1.Cl` [HC YELLOW NO. 9]: 1.3.

As for `CN(C)c1ccc(/N=N/c2n(C)cc[n+]2C)cc1` [BASIC RED 51, Basic Red 51], the “Log Po/w” value is on record as −1.97. Same read-out and setting: for `CN(N=Cc1cc[n+](C)cc1)c1ccccc1` [BASIC YELLOW 87, Basic Yellow 87] the value was −1.69; for `CC1=NN(c2ccccc2)C(=O)C1N=Nc1cccc([N+](C)(C)C)c1.[Cl-]` (centres unmarked) [BASIC YELLOW 57], 0.06.

In the case of `Cn1cc[n+](C)c1N=Nc1ccc(N)cc1.[Cl-]` [BASIC ORANGE 31, Basic Orange 31], the “Log Po/w” value is listed as −2.31.

Source of the values: patent publication US11160742B2, “Methods and compositions for improving hair color fastness and rejuvenating hair color” (L'Oreal, priority 2018, dated 2021).
